Test results taken from patent publication US9415055B2, “Cyclic amines” (H. Lundbeck A/S, priority 2012, dated 2016).

Target: P2X7 receptor (Homo sapiens (Human), UniProt Q99572)
Test: P2X7 FLIPR assay: antagonism of BzATP response in 293 HEK cells stably expressing P2X7 receptor
Type: cell-based
Conditions: FLIPR fluorescence (Fluo-4), agonist BzATP, 293 HEK cells stably transfected with P2X7 receptor
Procedure, shortened: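 Antagonist IC50 derived from FLIPR Tetra Fluo-4 calcium signal evoked by BzATP. Compound pre-incubation was 30 min at room temperature on P2X7-expressing HEK293 cells, seeded 24 h before in low-serum medium and dye-loaded 30 min at 37 °C then 30 min at RT.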

Chain of P2X7 receptor (Q99572 whole entry): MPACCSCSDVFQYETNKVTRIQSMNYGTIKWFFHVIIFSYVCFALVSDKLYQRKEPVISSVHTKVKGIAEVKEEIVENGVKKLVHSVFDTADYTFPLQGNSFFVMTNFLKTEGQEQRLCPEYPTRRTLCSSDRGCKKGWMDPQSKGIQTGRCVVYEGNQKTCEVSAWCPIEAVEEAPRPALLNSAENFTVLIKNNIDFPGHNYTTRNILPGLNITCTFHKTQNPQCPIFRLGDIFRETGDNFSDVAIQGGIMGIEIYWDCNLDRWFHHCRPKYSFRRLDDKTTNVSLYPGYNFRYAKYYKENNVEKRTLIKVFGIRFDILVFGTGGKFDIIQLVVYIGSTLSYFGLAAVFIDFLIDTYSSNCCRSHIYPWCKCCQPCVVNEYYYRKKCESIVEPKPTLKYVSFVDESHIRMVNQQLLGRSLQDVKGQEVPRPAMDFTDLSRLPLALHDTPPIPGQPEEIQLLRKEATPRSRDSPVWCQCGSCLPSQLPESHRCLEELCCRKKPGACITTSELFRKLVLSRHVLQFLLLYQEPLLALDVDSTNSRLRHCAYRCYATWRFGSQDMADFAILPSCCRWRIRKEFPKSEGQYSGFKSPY

| SMILES | IC50 [nM] |
| --- | --- |
| O=C(NCC(c1cnc(C(F)(F)F)nc1)N1CCOCC1)c1cccc(Cl)c1Cl (single isomer, unassigned; (+)) [(+)2,3-dichloro-N-[2-morpholino-2-[2-(trifluoromethyl)pyrimi] [(+)2,3-Dichloro-N-[2-morpholino-2-[2-(trifluoromethyl)pyrimidin-5-yl]ethyl]benzamide] | 4.8 |
| O=C(NCC(c1ccc(C(F)(F)F)nc1)N1CCC(F)(F)CC1)c1cccc(F)c1Cl (single isomer, unassigned; (-)) [(−)2-chloro-N-[2-(4,4-difluoro-1-piperidyl)-2-[6-(trifluorom] [(−)2-chloro-N-(2-(4,4-difluoropiperidin-1-yl)-2-(2-(trifluoromethyl)pyridin-5-yl)ethyl)-3-fluorobenzamide] | 5.7 |
| O=C(NCC(c1cnc(C(F)(F)F)nc1)N1CCOCC1)c1ccccc1Cl (single isomer, unassigned; (-)) [(−)2-chloro-N-[2-morpholino-2-[2-(trifluoromethyl)pyrimidin-] [(−)2-Chloro-N-[2-morpholino-2-[2-(trifluoromethyl)pyrimidin-5-yl]ethyl]benzamide] | 15 |
| O=C(NCC(c1ccc(F)cc1)N1CCC(F)(F)CC1)c1cccc(Cl)c1Cl (stereo not drawn) [2,3-Dichloro-N-[2-(4,4-difluoro-piperidin-1-yl)-2-(4-fluoro-phenyl)-ethyl]-benzamide] | 0.33 |
| COc1cccc(C(=O)NCC(c2ccc(C(F)F)nc2)N2CCC(F)(F)CC2)c1Cl (single isomer, unassigned; (-)) [(−)2-chloro-N-[2-[6-(difluoromethyl)-3-pyridyl]-2-(4,4-diflu] [(−)2-chloro-3-methoxy-N-(2-(2-(difluoromethyl)pyridin-5-yl)-2-(4,4-difluoropiperidin-1-yl)ethyl)benzamide] | 1.9 |
| COc1ccc(F)c(C(=O)NCC(c2cnc(C(F)(F)F)nc2)N2CCC(F)(F)CC2)c1Cl (single isomer, unassigned; (-)) [(−)2-chloro-N-[2-(4,4-difluoro-1-piperidyl)-2-[2-(trifluorom] [(−)2-chloro-N-(2-(4,4-difluoropiperidin-1-yl)-2-(2-(trifluoromethyl)pyrimidin-5-yl)ethyl)-6-fluoro-3-methoxybenzamide] | 31 |
| O=C(NCC(c1cnc(C(F)(F)F)nc1)N1CCC(F)(F)CC1)c1ccc(Cl)cc1Cl (single isomer, unassigned; (-)) [(−)2,4-dichloro-N-[2-(4,4-difluoro-1-piperidyl)-2-[2-(triflu] [(−)2,4-dichloro-N-(2-(4,4-difluoropiperidin-1-yl)-2-(2-(trifluoromethyl)pyrimidin-5-yl)ethyl)benzamide] | 6.4 |
| CCc1ncc(C(CNC(=O)c2c(F)cccc2Cl)N2CCC(F)(F)CC2)cn1 (single isomer, unassigned; (-)) [(−)2-chloro-N-[2-(4,4-difluoro-1-piperidyl)-2-(2-ethylpyrimi] [(−)2-chloro-6-fluoro-N-(2-(4,4-difluoropiperidin-1-yl)-2-(2-ethylpyrimidin-5-yl)ethyl)benzamide] | 36 |
| O=C(NCC(c1ccc(C(F)(F)F)nc1)N1CCOCC1)c1cccc(C(F)(F)F)c1Cl (single isomer, unassigned; (-)) [(−)2-chloro-N-[2-morpholino-2-[6-(trifluoromethyl)-3-pyridyl] [(−)2-Chloro-N-[2-morpholino-2-[6-(trifluoromethyl)-3-pyridyl]ethyl]-3-(trifluoromethyl)benzamide] | 12 |
| CCc1ncc(C(CNC(=O)c2c(F)cccc2Cl)N2CCC(F)(F)CC2)cn1 (single isomer, unassigned; (+)) [(+)2-chloro-N-[2-(4,4-difluoro-1-piperidyl)-2-(2-ethylpyrimi] [(+)2-chloro-6-fluoro-N-(2-(4,4-difluoropiperidin-1-yl)-2-(2-ethylpyrimidin-5-yl)ethyl)benzamide] | 14 |
| O=C(NCC(c1cnc(C(F)(F)F)nc1)N1CCC(F)(F)CC1)c1cccc(F)c1Cl (single isomer, unassigned; (-)) [(−)2-chloro-N-[2-(4,4-difluoro-1-piperidyl)-2-[2-(trifluorom] [(−)2-chloro-N-(2-(4,4-difluoropiperidin-1-yl)-2-(2-(trifluoromethyl)pyrimidin-5-yl)ethyl)-3-fluorobenzamide] | 4.2 |
| Cc1ncc(C(CNC(=O)c2cccc(F)c2Cl)N2CCC(F)(F)CC2)cn1 (single isomer, unassigned; (-)) [(−)2-chloro-N-[2-(4,4-difluoro-1-piperidyl)-2-(2-methylpyrim] [(−)2-chloro-3-fluoro-N-(2-(4,4-difluoropiperidin-1-yl)-2-(2-methylpyrimidin-5-yl)ethyl)benzamide] | 19 |
| Cc1ncc(C(CNC(=O)c2c(F)cccc2Cl)N2CCCC(F)(F)C2)cn1 (single isomer, unassigned; (+)) [(+)2-chloro-N-[2-(3,3-difluoro-1-piperidyl)-2-(2-methylpyrim] [(+)2-chloro-6-fluoro-N-(2-(3,3-difluoropiperidin-1-yl)-2-(2-methylpyrimidin-5-yl)ethyl)benzamide] | 53 |
| O=C(NC[C@H](c1ccc(Cl)cc1)N1CCOCC1)c1cccc(Cl)c1Cl [2,3-Dichloro-N-[(S)-2-(4-chloro-phenyl)-2-morpholin-4-yl-ethyl]benzamide] | 0.62 |
| O=C(NCC(c1ccc(C(F)(F)F)nc1)N1CCC(F)(F)CC1)c1cccc(Cl)c1Cl (stereo not drawn) [2,3-Dichloro-N-[2-(4,4-difluoro-1-piperidyl)-2-[6-(trifluoromethyl)-3-pyridyl]ethyl]benzamide] | 1.3 |
| Cn1cc(C(CNC(=O)c2cccc(Cl)c2Cl)N2CCC(F)(F)CC2)cn1 (single isomer, unassigned; (+)) [(+)2,3-dichloro-N-[2-(4,4-difluoro-1-piperidyl)-2-(1-methylp] [(+)2,3-dichloro-N-(2-(4,4-difluoropiperidin-1-yl)-2-(1-methyl-1H-pyrazol-4-yl)ethyl)benzamide] | 12 |
| Cc1ncc(C(CNC(=O)c2c(Cl)ccc(F)c2Cl)N2CCC(F)(F)CC2)cn1 (single isomer, unassigned; (+)) [(+)2,6-dichloro-N-[2-(4,4-difluoro-1-piperidyl)-2-(2-methylp] [(+)2,6-dichloro-5-fluoro-N-(2-(4,4-difluoropiperidin-1-yl)-2-(2-methylpyrimidin-5-yl)ethyl)benzamide] | 25 |
| CS(=O)(=O)c1ccc(Cl)c(C(=O)NCC(c2ccc(Cl)cc2)N2CCOCC2)c1 (single isomer, unassigned; (-)) [(−)2-chloro-N-[2-(4-chlorophenyl)-2-morpholino-ethyl]-5-meth] [(−)2-chloro-N-(2-(4-chlorophenyl)-2-morpholinoethyl)-5-(methylsulfonyl)benzamide] | 65 |
| Cc1ncc(C(CNC(=O)c2cc(F)cc(Cl)c2Cl)N2CCC(F)(F)CC2)cn1 (single isomer, unassigned; (+)) [(+)2,3-dichloro-N-[2-(4,4-difluoro-1-piperidyl)-2-(2-methylp] [(+)2,3-dichloro-5-fluoro-N-(2-(4,4-difluoropiperidin-1-yl)-2-(2-methylpyrimidin-5-yl)ethyl)benzamide] | 5.1 |
| O=C(NCC(c1cnc(C(F)(F)F)nc1)N1CCC(F)(F)CC1)c1c(Cl)ccc(F)c1Cl (single isomer, unassigned; (-)) [(−)2,6-dichloro-N-[2-(4,4-difluoro-1-piperidyl)-2-[2-(triflu] [(−)2,6-dichloro-5-fluoro-N-(2-(4,4-difluoropiperidin-1-yl)-2-(2-(trifluoromethyl)pyrimidin-5-yl)ethyl)benzamide] | 4.9 |
| Cc1ccccc1C(=O)NCC(c1ccc(F)cc1)N1CCOCC1 (stereo not drawn) [N-[2-(4-Fluoro-phenyl)-2-morpholin-4-yl-ethyl]-2-methyl-benzamide] | 110 |
| Cn1cc(C(CNC(=O)c2ccccc2Cl)N2CCC(F)(F)CC2)cn1 (single isomer, unassigned; (-)) [(−)2-chloro-N-[2-(4,4-difluoro-1-piperidyl)-2-(1-methylpyraz] [(−)2-chloro-N-(2-(4,4-difluoropiperidin-1-yl)-2-(1-methyl-1H-pyrazol-4-yl)ethyl)benzamide] | 230 |
| Cc1ncc(C(CNC(=O)c2cccc(F)c2Cl)N2CCCC(F)(F)C2)cn1 (single isomer, unassigned; (-)) [(−)2-chloro-N-[2-(3,3-difluoro-1-piperidyl)-2-(2-methylpyrim] [(−)2-chloro-3-fluoro-N-(2-(3,3-difluoropiperidin-1-yl)-2-(2-methylpyrimidin-5-yl)ethyl)benzamide] | 41 |
| Cc1ncc(C(CNC(=O)c2cc(F)cc(Cl)c2Cl)N2CCC(F)(F)CC2)cn1 (single isomer, unassigned; (-)) [(−)2,3-dichloro-N-[2-(4,4-difluoro-1-piperidyl)-2-(2-methylp] [(−)2,3-dichloro-5-fluoro-N-(2-(4,4-difluoropiperidin-1-yl)-2-(2-methylpyrimidin-5-yl)ethyl)benzamide] | 14 |
| Cc1ccc(C(CNC(=O)c2cc(C)ccc2Cl)N2CCOCC2)cc1 (stereo not drawn) [2-Chloro-5-methyl-N-(2-morpholin-4-yl-2-p-tolyl-ethyl)-benzamide] | 38 |
| O=C(NCC(c1cnc(C(F)(F)F)nc1)N1CCC(F)(F)CC1)c1c(F)cc(F)cc1Cl (single isomer, unassigned; (-)) [(−)2-chloro-N-[2-(4,4-difluoro-1-piperidyl)-2-[2-(trifluorom] [(−)2-chloro-4,6-difluoro-N-(2-(4,4-difluoropiperidin-1-yl)-2-(2-(trifluoromethyl)pyrimidin-5-yl)ethyl)benzamide] | 31 |
| COc1cccc(C(=O)NCC(c2cnc(C(F)(F)F)nc2)N2CCC(F)(F)CC2)c1Cl (single isomer, unassigned; (+)) [(+)2-chloro-N-[2-(4,4-difluoro-1-piperidyl)-2-[2-(trifluorom] [(+)2-chloro-N-(2-(4,4-difluoropiperidin-1-yl)-2-(2-(trifluoromethyl)pyrimidin-5-yl)ethyl)-3-methoxybenzamide] | 3.6 |
